Here are results for 5 compounds from patent publication US20240207427A1, “SELECTIVE DRUG RELEASE FROM INTERNALIZED CONJUGATES OF BIOLOGICALLY ACTIVE COMPOUNDS” (priority 2021, published 2024).

Read-outs that look alike come from different tables or passages of the source. Bounds are passed on as bounds.

Type in all cases: cell-based
For assay [1], the system named is Ls174T cells. Kind of assay: In vitro potency (CellTiter-Glo, 96 h), Ls174T. To be noted: Homo sapiens, LS174T, 96 h. The protocol:
(§1) In vitro potency was assessed on multiple cancer cell lines. All cell lines were authenticated by STR profiling at IDEXX Bioresearch and cultured for no more than 2 months after resuscitation. Cells cultured in log-phase growth were seeded for 24 hours in 96-well plates containing […] RPMI 1640 supplemented with 20% FBS. Serial dilutions of antibody-drug conjugates in cell culture media were prepared at 4× working concentrations, and 50 μL of each dilution was added to the 96-well plates. Following addition of test articles, cells were incubated with test articles for 4 days at 37 0° C. After 96 hours, growth inhibition was assessed by CellTiterGlo® (Promega, Madison, WI) and luminescence was measured on a plate reader.
(§2) In Table 7, IC50 values for ADCs are given in ng/mL. Cell viability was determined by CellTiter-Glo staining after 96 h exposure to ADC. ND=Not Determined. Ag2 is an antibody targeting a ubiquitous and readily internalizable antigen. The cancer cell lines tested are renal carcinoma cells (786-0), melanoma cells (A2058), pancreatic cancer cells (BxPC3), non-small-cell lung cancer cells (Calu1), anaplastic large cell lymphoma cells (DEL, DELBVR, Karpas299), Hodgkin's lymphoma cells (L540cy), (Ls174T), breast cancer cells (MDA-MB-231), acute myeloid leukemia cells (MOLM-13), and B-lymphocyte cancer cells (SU-DHL4).
(§3) In vitro potency was assessed on multiple cancer cell lines. All cell lines were authenticated by STR profiling at IDEXX Bioresearch and cultured for no more than 2 months after resuscitation. Cells cultured in log-phase growth were seeded for 24 hours in 96-well plates containing […] RPMI 1640 supplemented with 20% FBS. Following addition of test articles, cells were incubated with test articles for 4 days at 37 0° C. After 96 hours, growth inhibition was assessed by CellTiterGlo® (Promega, Madison, WI) and luminescence was measured on a plate reader.
(§4) Cell viability was determined by CellTiter-Glo staining after 96 h exposure to the compound. ND=Not Determined. The cancer cell lines tested are renal carcinoma cells (786-0), melanoma cells (A2058), pancreatic cancer cells (BxPC3), non-small-cell lung cancer cells (Calu1), anaplastic large cell lymphoma cells (DEL, DELBVR, Karpas299), Hodgkin's lymphoma cells (L540cy), (Ls 174T), breast cancer cells (MDA-MB-231), acute myeloid leukemia cells (MOLM-13), B-lymphocyte cancer cells (SU-DHL4), multiple myeloma cells (MM.1R), (U266), and melanoma cells (SK-MEL-5).
as §1, with “37°” for “37 0°”
(§5) In the following Tables IC50 values for ADCs and CPT free drugs are given in ng/mL and nmol/L concentrations. Cell viability was determined by CellTiter-Glo staining after 96 h exposure to ADC or CPT free drug.
(§6) Cell viability was determined by CellTiter-Glo staining after 96 h exposure to ADC. ND=Not Determined.
On the technique in general: Cellular ATP, detected with luciferase, serves as a proxy for viable cell number.

Assay [2] deals with anaplastic large cell lymphoma cells (DEL). Kind of assay: In vitro potency (CellTiter-Glo, 96 h), DEL. The protocol:
as §1, §2, §3, §4
as §1, with “37°” for “37 0°”
as §5, §6

Assay [3] has as its system breast cancer cells (MDA-MB-231). Nature of the assay: In vitro potency (CellTiter-Glo, 96 h), MDA-MB-231. As to conditions: Homo sapiens, MDA-MB-231, 96 h, 96 h. As to the method:
as §1, §2, §3, §4
as §1, with “37°” for “37 0°”
as §5, §6

The subject of assay [4] is Hodgkin's lymphoma cells (L540cy). Kind of assay: In vitro potency (CellTiter-Glo, 96 h), L540cy. As to the method:
as §1, §2, §3, §4
as §1, with “37°” for “37 0°”
as §5, §6

For assay [5], the system named is anaplastic large cell lymphoma cells (DELBVR). Kind of assay: In vitro potency (CellTiter-Glo, 96 h), DELBVR. The protocol:
as §1, §2, §3, §4
as §1, with “37°” for “37 0°”
as §5, §6

The subject of assay [6] is acute myeloid leukemia cells (MOLM-13). Kind of assay: In vitro potency (CellTiter-Glo, 96 h), MOLM-13. As to conditions: Homo sapiens, MOLM-13, 96 h. The protocol:
as §1, §2, §3, §4
as §1, with “37°” for “37 0°”
as §5, §6

Assay [7] has as its system anaplastic large cell lymphoma cells (Karpas299). Nature of the assay: In vitro potency (CellTiter-Glo, 96 h), Karpas299. To be noted: Homo sapiens, KARPAS-299, 96 h. As to the method:
as §1, §2, §3, §4
as §1, with “37°” for “37 0°”
as §5, §6

The subject of assay [8] is B-lymphocyte cancer cells (SU-DHL4). Nature of the assay: In vitro potency (CellTiter-Glo, 96 h), SU-DHL-4. To be noted: Homo sapiens, SU-DHL-4, 96 h. The protocol:
as §1, §2, §3, §4
as §1, with “37°” for “37 0°”
as §5, §6

The subject of assay [9] is pancreatic cancer cells (BxPC3). Nature of the assay: In vitro potency (CellTiter-Glo, 96 h), BxPC3. To be noted: Homo sapiens, BXPC-3, 96 h. As to the method:
as §1, §2, §3, §4
as §1, with “37°” for “37 0°”
as §5, §6

The test system of assay [10] is renal carcinoma cells (786-O). Kind of assay: In vitro potency (CellTiter-Glo, 96 h), 786-O. To be noted: Homo sapiens, 786-0, 96 h. As to the method:
as §1, §2, §3, §4
as §1, with “37°” for “37 0°”
as §5, §6

Assay [11] concerns melanoma cells (A2058). Nature of the assay: In vitro potency (CellTiter-Glo, 96 h), A2058. As to conditions: Homo sapiens, A2058, 96 h, read-out: A2058 IC50. As to the method: as §1, §2, §3, §4
as §1, with “37°” for “37 0°”
as §5, §6

Where [12] appears, read: camptothecin free drug, read-out: Ls174T IC50.
[13] abbreviates: camptothecin free drug, read-out: DEL IC50.
The mark [14] stands for this setting: camptothecin free drug, read-out: MDAMB231 IC50.
[15] abbreviates: camptothecin free drug, read-out: L540cy IC50.
Setting [16] is: camptothecin free drug, read-out: DELBVR IC50.
[17] abbreviates: camptothecin free drug, 96 h, read-out: MOLM-13 IC50.
[18] abbreviates: camptothecin free drug, 96 h, read-out: Karpas299 IC50.
[19] abbreviates: camptothecin free drug, 96 h, read-out: SU-DHL-4 IC50.
Where [20] appears, read: camptothecin free drug, 96 h, read-out: BxPC3 IC50.
[21] abbreviates: camptothecin free drug, 96 h, read-out: 786-O IC50.

For orientation: IC50 means the concentration that gives 50% inhibition. For the compound `CC[C@@]1(O)C(=O)OCc2c1cc1n(c2=O)Cc2c-1nc1cc3c(cc1c2CNCCCN(C)C(=O)OC(C)(C)C)OCO3` [Compound 7a], the half-inhibitory concentration (IC50) in [1] (setting [12]) is 74 nM; in assay [2] (setting [13]), 25 nM; in assay [3] (setting [14]) it was 390 nM; in assay [4] (setting [15]), 52 nM; in [5] (setting [16]), 49 nM; in [6] (setting [17]), 223 nM. Besides, the IC50 is 135 nM in assay [7] (setting [18]); 64 nM in assay [8] (setting [19]); 81 nM in assay [9] (setting [20]); 111 nM in assay [10] (setting [21]); 23 nM in assay [11] (camptothecin free drug, 96 h).

As to `CC[C@@]1(O)C(=O)OCc2c1cc1n(c2=O)Cc2c-1nc1cc3c(cc1c2CN1CCN(CCNC(=O)OC(C)(C)C)CC1)OCO3` [Compound 7af], the concentration for half-maximal inhibition (IC50) was 80 nM in assay [1] (setting [12]); 15 nM in [2] (setting [13]); 1000 nM in [3] (setting [14]); 62 nM in assay [4] (setting [15]); 24 nM in assay [5] (setting [16]); 110 nM in assay [6] (setting [17]). The IC50 in [7] (setting [18]) stood at 127 nM; in [8] (setting [19]), 48 nM; in [9] (setting [20]), 176 nM; in assay [10] (setting [21]), 177 nM; in assay [11] (camptothecin free drug, 96 h), 38 nM.

Regarding `CC[C@@]1(O)C(=O)OCc2c1cc1n(c2=O)Cc2c-1nc1cc3c(cc1c2CNCCN1CCN(C)CC1)OCO3` [Compound 7b], the half-inhibitory concentration (IC50) in assay [1] (read-out: Ls174T IC50, camptothecin free drug, 96 h) was determined as 77 nM; in assay [2] (read-out: DEL IC50, camptothecin free drug, 96 h), 54 nM; in assay [4] (read-out: L540cy IC50, camptothecin free drug, 96 h) it was 87 nM; in assay [5] (read-out: DELBVR IC50, camptothecin free drug, 96 h) it was 55 nM; in assay [6] (read-out: MOLM-13 IC50, camptothecin free drug, 96 h), 533 nM; in [7] (read-out: Karpas299 IC50, camptothecin free drug, 96 h), 158 nM. In addition, the IC50 in assay [8] (read-out: SU-DHL-4 IC50, camptothecin free drug, 96 h) turned out to be 94 nM; in assay [9] (read-out: BxPC3 IC50, camptothecin free drug, 96 h), 172 nM; in assay [10] (read-out: 786-O IC50, camptothecin free drug, 96 h), 162 nM; in assay [11], 55 nM.

With `CC[C@@]1(O)C(=O)OCc2c1cc1n(c2=O)Cc2c-1nc1cc3c(cc1c2CNCCN1CCN(C(=O)OC(C)(C)C)CC1)OCO3` [Compound 7f], the IC50 in [1] (setting [12]) is 69 nM; in assay [2] (setting [13]), 52 nM; in assay [3] (setting [14]), 776 nM; in [4] (setting [15]) it was 66 nM; in assay [5] (setting [16]), 52 nM; in [6] (setting [17]), > 1000 nM. For the same compound, the half-inhibitory concentration (IC50) in [7] (setting [18]) was 162 nM; in assay [8] (setting [19]), 83 nM; in assay [9] (setting [20]) it was 155 nM; in assay [10] (setting [21]) it was 130 nM; in [11] (camptothecin free drug, 96 h) it was 41 nM.

As for `CC[C@@]1(O)C(=O)OCc2c1cc1n(c2=O)Cc2c-1nc1cc(F)c(C)c(Cl)c1c2CNC(=O)CN` [Compound 13a], the IC50 in assay [1] (read-out: Ls174T IC50, Table 28, CPT free drugs, Ls174T cells, CellTiter-Glo) was 44 nM; in assay [2] (read-out: DEL IC50, Table 28, CPT free drugs, anaplastic large cell lymphoma cells DEL, CellTiter-Glo), 0.3 nM; in assay [3] (read-out: MDAMB231 IC50, Table 28, CPT free drugs, breast cancer cells MDA-MB-231, CellTiter-Glo) it was 5 nM; in assay [4] (read-out: L540cy IC50, Table 28, CPT free drugs, Hodgkin's lymphoma cells L540cy, CellTiter-Glo), 1 nM; in [5] (read-out: DELBVR IC50, Table 28, CPT free drugs, anaplastic large cell lymphoma cells DELBVR, CellTiter-Glo) it was 1 nM; in [6] (read-out: MOLM-13 IC50, Table 28, CPT free drugs, acute myeloid leukemia cells MOLM-13, 96 h, CellTiter-Glo), 2 nM. The half-inhibitory concentration (IC50) in assay [7] (read-out: Karpas299 IC50, Table 28, CPT free drugs, anaplastic large cell lymphoma cells Karpas299, 96 h, CellTiter-Glo) worked out at 1 nM; in assay [8] (read-out: SU-DHL-4 IC50, Table 28, CPT free drugs, B-lymphocyte cancer cells SU-DHL4, 96 h, CellTiter-Glo), 1 nM; in [9] (read-out: BxPC3 IC50, Table 28, CPT free drugs, pancreatic cancer cells BxPC3, 96 h, CellTiter-Glo), 5 nM; in assay [10] (read-out: 786-O IC50, Table 28, CPT free drugs, renal carcinoma cells 786-O, 96 h, CellTiter-Glo), 6 nM.
